The data set in a line: Properties and self-adherence of films of PEA 4-Phe-4 mixed with EAC-2 cross-linkers, dry and after 24 h in water. The arrangement: key to Self-adherence: (—) means: no self-adherence observed. The following applies: for Self-adherence: folded film in water 24 hours; for Wet: pre-soaked in water at room temperature 24 hours; for Dry: dry film. The data set is classed as physicochemical. From the text: At the first stage, this Example addresses the question of whether invention cross-linking agents can be used as plasticizers without causing the composition to undesirably adhere to the surface of other materials (for example, steel, and other medical device surfaces).

SMILES strings stand for the structures.

Take `C=CC(=O)NC(CC(C)C)C(=O)OCCCCCCOC(=O)C(CC(C)C)NC(=O)C=C` (stereo not shown) [Leu-6-AA]: where the note is “PEA 4-Phe-4/EAC-2 40/60 w/w”, the Self-adherence entry is “—”. Moreover, under “PEA 4-Phe-4/EAC-2 60/40 w/w”, the Self-adherence result is listed as “—” and the Wet result was “Brittle”. Moreover, where the note is “PEA 4-Phe-4/EAC-2 80/20 w/w”, the Dry entry is on record as “Hard” and the Self-adherence entry is given as “—”.
For the compound `C=C(C)C(=O)N[C@@H](Cc1ccccc1)C(=O)OCCCCCCOC(=O)[C@H](Cc1ccccc1)NC(=O)C(=C)C` [Phe-6-MA, dimethacrylate of bis(L-Phe)-1,6-hexanediol diester], the Self-adherence result (PEA 4-Phe-4/EAC-2 40/60 w/w) is “—”. Also, under “PEA 4-Phe-4/EAC-2 60/40 w/w”, the Dry result is on record as “Hard”, the Self-adherence result is “—” and the Wet entry is reported as “Elastic”. Moreover, where the note is “PEA 4-Phe-4/EAC-2 80/20 w/w”, the Dry result was “Hard” and the Self-adherence entry is reported as “—”.
As for `O=C(C=Cc1ccccc1)NC(Cc1ccccc1)C(=O)OCCCCCCOC(=O)C(Cc1ccccc1)NC(=O)C=Cc1ccccc1` (stereo not shown) [Phe-6-CA], where the note is “PEA 4-Phe-4/EAC-2 40/60 w/w”, the Dry result is “Brittle” and the Self-adherence entry is listed as “—”. Moreover, for the setting “PEA 4-Phe-4/EAC-2 60/40 w/w”, the Dry entry is “Brittle”, the Self-adherence result is “—” and the Wet entry is listed as “Elastic”. For the same compound, where the note is “PEA 4-Phe-4/EAC-2 80/20 w/w”, the Dry result was “Hard” and the Self-adherence result is on record as “—”.
`C=C(C)C(=O)NC(CC(C)C)C(=O)OCCCCCCOC(=O)C(CC(C)C)NC(=O)C(=C)C` (stereo not shown) [Leu-6-MA]: the Self-adherence result runs as follows: (PEA 4-Phe-4/EAC-2 40/60 w/w) “—”; (PEA 4-Phe-4/EAC-2 60/40 w/w) “—”; (PEA 4-Phe-4/EAC-2 80/20 w/w) “—”.
For the compound `CC(C)CC(NC(=O)C=Cc1ccccc1)C(=O)OCCCCCCOC(=O)C(CC(C)C)NC(=O)C=Cc1ccccc1` (stereo not shown) [Leu-6-CA], the Self-adherence entry by setting is: (PEA 4-Phe-4/EAC-2 40/60 w/w) “—”; (PEA 4-Phe-4/EAC-2 60/40 w/w) “—”; (PEA 4-Phe-4/EAC-2 80/20 w/w) “—”. Also, the Dry result (PEA 4-Phe-4/EAC-2 60/40 w/w) is reported as “Elastic”.

(Values after patent US7649022B2, “Bioabsorbable elastomeric polymer networks, cross-linkers and methods of use” (priority 2007, dated 2010).)
